Non-standard residues stand in square brackets, D forms with d. Residues, ends and D or L forms follow the SMILES beside them. *: point of attachment. Lauroyl = CCCCCCCCCCCC(=O)*; NH(CH2)4NH2 = NCCCCN*

The subject of data set [1] is human cells Kasumi. Nature of the data set: MTT cytotoxicity assay, Kasumi. Type of data set: cell-based. Particulars: 24 h. In short, it runs like this: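 MTT read-out of viability; cancer lines plus normal 2B epithelial cells. Lines authenticated by morphology, gene/protein expression.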
Data set [2] relates to HepG2 cells. Nature of the data set: Extracellular and intracellular compound in HepG2 cells (LC-MS). Particulars: 3 h. The data set is classed as in vitro ADME, human. The protocol: (§1) Comparing the concentration of compounds (7, 10, 10a) in extracellular and intracellular after the HepG2 cell line dealt with compounds. HepG2 cells were plated in six-well plates at a density of 1.5 × 10^5 cells/well and grew overnight. After cell treated with compounds (5 μg/mL) for 3 h, the compounds were extracted with MeOH for cells culture medium and cells separately as followed the reported method. The compounds were quantified by LC‒MS (5%‒95% ACN in 15 min). The cell numbers of HepG2 with the compounds treatments was determined. […]
(§2) To determine whether the difference in bioactivity of products (with or without Put moiety) is due to variations in cellular uptake, we treated hepatoma cell line HepG2 with compounds 7 (C12 acyl), 10 (C14 acyl), and 10a (C14 acyl and without Put) (Supplementary Fig. 33c). The cells were treated for 3 h, and then culture medium and cells were extracted separately. LC-MS was used to detect and quantify the compounds.
(§3) At lower concentrations (5000 ng/mL, and 10,000 ng in total for each group), and […]
(§4) may be contributing to the differences in antitumor activity (Supplementary Fig. 33b).
(§5) This could be due to differences in the speed of cellu lar uptake or differences in drug metabolism rate, requiring further experimental investigation.

For data set [3], the system named is HepG2 cells. Nature of the data set: Cell numbers of HepG2 after compound treatment. The data set is classed as cell-based, human. Particulars: HepG2, 1.5 × 10^5 cells/well plated, compound 5 μg/mL, 3 h; mean of n = 3. The protocol: as §1, §2, §3, §4, §5

`CCCCCCCCCCCC(=O)N[C@H](CCSC)C(=O)N[C@H](CC(N)=O)C(=O)N1CCC[C@H]1C(=O)N[C@H](C(=O)N[C@H](Cc1ccccc1)C(=O)N1CCC[C@H]1C(=O)N[C@@H](Cc1c[nH]c2ccccc12)C(=O)N[C@@H](C(=O)N[C@@H](C)C(=O)N[C@H](C)C(=O)N[C@@H](CO)C(=O)N[C@@H](C)C(=O)NCCCCN)C(C)C)C(C)C` [Compound 7, Glidonin G] (Lauroyl-[dM][dN]PV[dF]PW[dV]A[dA]SA-{NH(CH2)4NH2}) displayed a half-inhibitory concentration (IC50) in data set [1] of 7.93 ± 0.35 µM. Also, the “total quantities (intracellular plus extracellular) in words” value in data set [2] (HepG2, 5000 ng/mL, compared to 10a) was “lower total quantities”. The “Intracellular compound, Average” value in data set [2] (HepG2, six-well plates, 5 μg/mL (10,000 ng in total), cells extracted with MeOH, mean of n = 3) was 13.4894 ng. Further, in data set [2] (HepG2, six-well plates, 5 μg/mL (10,000 ng in total), culture medium extracted with MeOH, mean of n = 3), the “Extracellular compound, Average” value turned out to be 2764.81 ng. The “The cell numbers, Average” value in data set [3] was 1323333.

One may read the IC50 as the concentration that inhibits the measured activity by half. Lower therefore signals inhibition by little substance.
